According to PMC6001375, “CLERK is a novel receptor kinase required for sensing of root-active CLE peptides in Arabidopsis” (Development (Cambridge, England), 2018):
Entries after “also recorded” stand apart in the source; their conditions may differ.

How the values were obtained:
[1] = tested on: VISUAL-cultured wild-type cotyledons (sieve element-specific genes); test: RNAseq transcriptomic response in the VISUAL trans-differentiation assay; format: cell-based, Arabidopsis thaliana; conditions: for Number of responsive genes / Overlap of CLE26- and CLE45-responsive genes: 100 nM peptide, 2 h, q value<0.01
Text: In an attempt to isolate novel components of CLE peptide signaling in A. thaliana root protophloem development, we embarked on a combinatorial approach of transcriptomic analysis and forward genetics. Experimental investigation of developing protophloem sieve elements is inherently difficult, because they represent only 40-50 cells inside the vascular cylinder of the root meristem, and some of our genes of interest are expressed only in a subset of these. Protophloem-specific transcriptomic responses are thus strongly diluted when root tips are assayed, and attempts to identify, e.g. protophloem-specific CLE45-responsive genes have so far been unsuccessful ([Depuydt et al., 2013]). However, in a novel trans-differentiation assay [vascular cell induction culture system using Arabidopsis leaves (VISUAL)] ([Kondo et al., 2016]), in which cotyledon or leaf mesophyll cells are re-programmed to differentiate into a ∼50:50 mix of xylem vessels and sieve elements, sieve element-specific genes can be monitored in unprecedented abundance. Although these trans-differentiated sieve elements are not root protophloem, they do represent a native cell type in which sieve element regulators can be investigated successfully ([Breda et al., 2017]; [Kondo et al., 2016]). Moreover, a transcriptomic time series identified BAM3 as a central node in the early module of the trans-differentiation process ([Kondo et al., 2016]). Thus, we concluded that VISUAL could be employed to identify CLE26- and CLE45-responsive sieve element-specific genes. To achieve this, we VISUAL-cultured wild-type cotyledons and monitored BAM3 expression in a parallel cultured transgenic line that carried a BAM3::GUS reporter gene. Strong comprehensive BAM3 expression was observed after 48 h. At this time point, the wild-type sample was split in replicates and treated with control, 100 nM CLE26 or 100 nM CLE45 for 2 h. Total RNA was isolated immediately after from these samples, and cDNA was prepared for high-throughput sequencing.
Vascular tissue trans-differentiation was induced in cotyledons over 2 days as described previously ([Kondo et al., 2016]). Samples were then treated with 100 nM of CLE26 or CLE45 peptide for 2 h. Total RNA of two biological replicates was then extracted from 100 mg of fresh material, using RNeasy Plant mini kits (Qiagen). Truseq Stranded mRNA kits (Illumina) were used to prepare cDNA libraries, which were sequenced on an Illumina Hiseq 2500 instrument. Read counts and differential expression were determined with Kallisto ([Bray et al., 2016]) and Sleuth ([Pimentel et al., 2017]) software, using the TAIR10 reference transcriptome. The raw data have been deposited in the NCBI Sequence Read Archive (www.ncbi.nlm.nih.gov/sra/) under accession SRP126390.

[2] = tested on: Arabidopsis root growth; test: Root growth response (CLE resistance/sensitivity) of wild type and mutant seedlings; format: in vivo, Arabidopsis thaliana; conditions: for Root growth response of clerk mutants: clerk mutants vs Col-0 (and bam3 for CLE45), n=13-25 (Fig. 2B), n=16-19 (Fig. 2A)
Text: Arabidopsis thaliana Columbia-0 (Col-0) was used as the wild type for phenotypic analyses and is the background of all mutants investigated: ops-2 (SALK_139316); brx-2 ([Rodrigues et al., 2009]); bam3-2 (SALK_044433) ([DeYoung et al., 2006]); clerk-3 (SALK_066568); ops^E319K ([Rodriguez-Villalon et al., 2014]); makr5 ([Kang and Hardtke, 2016]); nik1 (SALK_017538C); nik2 (SALK_044363C); and sark (SALK_111290), clv2/rlp10-1 (GK-686A09) and crn-10 ([Hazak et al., 2017]). Seeds were surface sterilized, germinated and grown vertically under continuous light at 22°C on 0.5× Murashige and Skoog media supplemented with 1% agar and with or without 0.3% sucrose.
CLE peptides were obtained from a commercial supplier (Genscript), synthesized at >80% purity, diluted in water and used at final concentration as indicated. For root length measurements, plates were scanned at 600 dpi resolution and seedling root length was determined using the Simple Neurite Tracer plug-in ([Longair et al., 2011]) for Fiji software ([Schindelin et al., 2012]).
M2 mutagenized seeds ([Kalmbach et al., 2017]) were screened in tissue culture on media complemented with 10 nM CLE26 peptide. Seedlings with CLE26-resistant root growth were transferred to soil and the phenotype was confirmed in the M3 generation before backcrossing to Col-0 wild type. The causative mutation for CLE26 resistance was then determined by whole-genome sequencing of bulked segregants as described previously ([Kang and Hardtke, 2016]).

| Sequence | Regulation of SARK and NIK2 ([1]; 100 nM CLE26, 2 h) | Regulation of CLERK (At2g23950) ([1]; 100 nM CLE26, 2 h, top CLE26-responsive gene) | Number of responsive genes [1] [genes] | Overlap of CLE26- and CLE45-responsive genes [1] [genes] | Root growth, 10 confirmed CLE26-resistant mutants ([2]; 100 nM CLE26, vs Col-0 wild type, ANOVA, P<0.001, n=8-21) | Sensitivity of clerk plants carrying CLERK::CLERK-GFP ([2]; Fig. 1E) | Root growth response, clerk T-DNA insertion mutant (SALK_066568) ([2]; Fig. 1E, n=28-47) | Response of brx crn double mutants ([2]; Fig. S4) | Requirement of CLERK for sensing in the root ([2]; clerk mutants) | Root growth response of clerk mutants [2] | Response of clerk brx and clerk ops double mutants ([2]; n=2-25) | Response of combinations of clerk with bam3, makr5 or ops^E319K ([2]; n=2-25) | CLE sensitivity of clerk mutants with transgenic CLERK wild-type copy ([2]; original and T-DNA clerk mutants, Fig. 1E, n=28-47) | Sensing with SARK or NIK1 expressed under the CLERK promoter ([2]; several independent transgenic lines, n=21-43) |
| --- | --- | --- | --- | --- | --- | --- | --- | --- | --- | --- | --- | --- | --- | --- |
| RKVPRGPDPIHN [CLE26] | downregulated | downregulated | 167 | 36 | substantially resistant; also recorded: statistically significantly different when compared with Col-0 wild type | full sensitivity | strong CLE26 resistance | still CLE26 sensitive | CLERK is required for CLE26 sensing in the root | resistant | both clerk brx and clerk ops were CLE26 sensitive | additive CLE26 resistance | could be recovered | both SARK and NIK1 could replace the CLERK protein to sense CLE26 |
| RRVRRGSDPIHN [CLE45] |  |  | 97 | 36 |  |  |  |  |  | resistant |  |  |  |  |
